This test concerns the target Recombinant Human Enteropeptidase (Homo sapiens (Human), UniProt P98073). Put plainly: Enteropeptidase Inhibition Assay. The class given is biochemical. The conditions noted are these: substrate Acetyl-Asp-Asp-Asp-Asp-Lys-AFC 30 μM, 30° C., 1 hour; Ki calculated from IC50 using Cheng-Prusoff equation. The protocol:
Enteropeptidase Inhibition Assay
The inhibitory activity of the enteropeptidase inhibitor synthesized using the purified Recombinant Human Enteropeptidase and the substrate Acetyl-Asp-Asp-Asp-Asp-Lys-AFC (BioVision) was measured. 7.2 ng/mL of Enteropeptidase diluted with a buffer (20 mM Tris, 50 mM NaCl, pH 7.5) in a 96 well plate (Costar), 30 μM of Acetyl-Asp-Asp-Asp-Asp-Lys-AFC, several concentrations of Enteropeptidase inhibitors (1% DMSO concentration) were dispensed such that a final volume was 100 μL, and then the enzyme reaction was carried out at 30° C. for 1 hour. At this time, 1% DMSO, a substrate and Enteropeptidase instead of the compound were dispensed onto positive control wells, and 1% DMSO and a substrate were dispensed onto negative control wells. The enzyme reaction was […] using an excitation wavelength of 380 nm and an emission wavelength of 500 nm in a fluorescence spectrometer, and then the rate of increase in fluorescence (milli-units per min) between 20 and 60 minutes was measured.
The fluorescence measurement values reduced by the inhibitor diluted at each concentration were converted into relative values % of the positive control group (100% reactivity) and the negative control group (0% reactivity), and used to calculate IC50 values. IC50 is the concentration of the inhibitor that inhibits the enzyme activity by 50%, and was calculated using PRISM (GraphPad). Ki values were calculated from the IC50 values using Cheng-Prusoff equation.

These results are taken from patent publication US11447480B2, “Compound exhibiting enteropeptidase inhibitory activity” (LG CHEM, LTD., priority 2018, dated 2022).

pKi: −log10 of the molar value.

For orientation: pKi means the Ki on a negative log10 scale, so that one unit is a factor of ten.

Chain of Recombinant Human Enteropeptidase (P98073 whole entry): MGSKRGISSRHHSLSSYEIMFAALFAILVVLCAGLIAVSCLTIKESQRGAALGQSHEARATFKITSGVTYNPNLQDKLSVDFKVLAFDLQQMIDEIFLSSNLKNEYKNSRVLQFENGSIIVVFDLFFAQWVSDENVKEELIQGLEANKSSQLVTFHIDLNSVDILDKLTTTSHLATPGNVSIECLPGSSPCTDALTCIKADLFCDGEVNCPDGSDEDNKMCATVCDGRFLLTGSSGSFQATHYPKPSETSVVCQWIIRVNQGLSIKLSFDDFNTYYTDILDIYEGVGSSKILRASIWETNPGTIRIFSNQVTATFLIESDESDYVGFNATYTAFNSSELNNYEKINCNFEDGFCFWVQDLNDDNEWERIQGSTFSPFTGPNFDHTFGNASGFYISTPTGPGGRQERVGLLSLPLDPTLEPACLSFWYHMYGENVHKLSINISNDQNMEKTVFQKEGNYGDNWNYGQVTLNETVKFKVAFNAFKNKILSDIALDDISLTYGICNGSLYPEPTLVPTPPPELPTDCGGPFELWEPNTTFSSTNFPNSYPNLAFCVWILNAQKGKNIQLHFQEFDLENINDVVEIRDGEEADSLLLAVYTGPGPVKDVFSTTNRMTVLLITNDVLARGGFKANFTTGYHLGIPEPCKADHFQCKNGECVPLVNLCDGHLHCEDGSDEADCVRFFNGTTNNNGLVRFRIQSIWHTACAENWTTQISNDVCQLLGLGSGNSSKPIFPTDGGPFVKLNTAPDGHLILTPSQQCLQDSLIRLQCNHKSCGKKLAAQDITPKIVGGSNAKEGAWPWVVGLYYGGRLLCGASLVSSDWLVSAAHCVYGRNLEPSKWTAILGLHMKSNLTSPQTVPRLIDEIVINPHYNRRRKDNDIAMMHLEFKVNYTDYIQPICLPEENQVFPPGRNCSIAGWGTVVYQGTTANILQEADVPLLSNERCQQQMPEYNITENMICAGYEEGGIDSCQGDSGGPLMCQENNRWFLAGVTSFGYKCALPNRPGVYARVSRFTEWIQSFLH

`CN(CCCC(=O)O)C(=O)C1CCN(c2ncc(C(=O)Oc3ccc(C(=N)N)cc3)s2)CC1` [Example 35]: the pKi was 8.01.

`N=C(N)c1ccc(OC(=O)c2cnc(N3CCC(NC(=O)c4ccccc4)CC3)s2)cc1` [Example 28, 4-Carbamimidoylphenyl 2-(4-benzamidopiperidin-1-yl)thiazole-5-carboxylate]: the negative logarithm of the Ki (pKi) is 8.19.

As to `COC(=O)C1CCN(c2ncc(C(=O)Oc3ccc(NC(=N)N)cc3)s2)CC1` [Example 5, 4-Guanidinophenyl 2-(4-(methoxycarbonyl)piperidin-1-yl)thiazole-5-carboxylate], the pKi was 6.29.

As to `CCN(CCC(=O)N[C@@H](CC(=O)O)C(=O)O)c1ncc(C(=O)Oc2ccc(C(=N)N)cc2F)s1` [Example 47, (3-((5-((4-Carbamimidoyl-2-fluorophenoxy)carbonyl)thiazol-2-yl)(ethyl)amino)propanoyl)-L-aspartic Acid], the negative logarithm of the Ki (pKi) was 9.28.

On to `COC(=O)C(C)(C)CNc1ncc(C(=O)Oc2ccc(C(=N)N)cc2)s1` [Example 24, 4-Carbamimidoylphenyl 2-((3-methoxy-2,2-dimethyl-3-oxopropyl)amino)thiazole-5-carboxylate], for which the negative logarithm of the Ki (pKi) was 8.05.

As for `COC(=O)C1CCN(c2ncc(C(=O)Oc3ccc(C(=N)N)cc3)s2)C1` (stereo not drawn) [Example 16, 4-Carbamimidoylphenyl 2-(3-(methoxycarbonyl)pyrrolidin-1-yl)thiazole-5-carboxylate], the pKi was 7.72.

With `N=C(N)c1ccc(OC(=O)c2cnc(N3CCC(C(=O)O)C3)s2)cc1` (stereo not drawn) [Example 17, 1-(5-((4-Carbamimidoylphenoxy)carbonyl)thiazol-2-yl)pyrrolidine-3-carboxylic Acid], the pKi is 8.27.

For `CCN(CCC(=O)Nc1ccc(C(=O)O)cc1)c1ncc(C(=O)Oc2ccc(C(=N)N)cc2F)s1` [Example 55, 4-(3-((5-((4-Carbamimidoyl-2-fluorophenoxy)carbonyl)thiazol-2-yl)(ethyl)amino)propanamido)benzoic Acid], the negative-log Ki (pKi) was 8.09.

For `CCN(CCC(=O)Nc1cccc(C(=O)O)c1)c1ncc(C(=O)Oc2ccc(C(=N)N)cc2F)s1` [Example 54, 3-(3-((5-((4-Carbamimidoyl-2-fluorophenoxy)carbonyl)thiazol-2-yl)(ethyl)amino)propanamido)benzoic Acid], the pKi was 8.60.

`CCN(CCC(=O)O)c1ncc(C(=O)Oc2ccc(C(=N)N)cc2)s1` [Example 14]: the pKi was 8.29.

With `CN(CCCC(=O)O)c1nc2ccc(C(=O)Oc3ccc(C(=N)N)cc3)cc2s1` [Example 64, 4-((6-((4-Carbamimidoylphenoxy)carbonyl)benzo[d]thiazol-2-yl)(methyl)amino)butanoic Acid], the pKi was 8.19.

`COC(=O)CCN(C)c1ncc(C(=O)Oc2ccc(C(=N)N)cc2)s1` [Example 8, 4-Carbamimidoylphenyl 2-((3-methoxy-3-oxopropyl)(methyl)amino)thiazole-5-carboxylate]: the pKi is 7.55.

As for `CCN(CC(C)(C)C(=O)O)c1nc2ccc(C(=O)Oc3ccc(C(=N)N)cc3F)cc2s1` [Example 75, 3-((6-((4-Carbamimidoyl-2-fluorophenoxy)carbonyl)benzo[d]thiazol-2-yl)(ethyl)amino)-2,2-dimethyl Propanoic Acid], the pKi was 9.15.

`N=C(N)c1ccc(OC(=O)c2cnc(N3CCC(C(=O)NCCC(=O)O)CC3)s2)cc1` [Example 34]: the negative logarithm of the Ki (pKi) is 8.05.

As for `COc1ccc(NC(=O)C2CCN(c3ncc(C(=O)Oc4ccc(C(=N)N)cc4)s3)CC2)cc1` [Example 40, 4-carbamimidoylphenyl 2-(4-((4-methoxyphenyl)carbamoyl)piperidin-1-yl)thiazole-5-carboxylate], the pKi was 8.01.

With `COC(=O)CCNC(=O)C1CCN(c2ncc(C(=O)Oc3ccc(C(=N)N)cc3F)s2)CC1` [Example 38, 4-Carbamimidoyl-2-fluorophenyl 2-(4-((3-methoxy-3-oxopropyl)carbamoyl)piperidin-1-yl)thiazole-5-carboxylate], the pKi is 8.59.

On to `CCN(CCC(=O)O)c1nc2ccc(C(=O)Oc3ccc(C(=N)N)cc3F)cc2s1` [Example 85, 3-((6-((4-Carbamimidoyl-2-fluorophenoxy)carbonyl)benzo[d]thiazol-2-yl)(ethyl)amino)propanoic Acid], for which the pKi was 9.26.

For `CCN(CCC(=O)Nc1ccc(C(=O)OC)cc1)c1ncc(C(=O)Oc2ccc(C(=N)N)cc2F)s1` [Example 50, 4-Carbamimidoyl-2-fluorophenyl 2-(ethyl(3-((4-(methoxycarbonyl)phenyl)amino)-3-oxopropyl)amino)thiazole-5-carboxylate], the negative logarithm of the Ki (pKi) was 7.85.

As for `CN(CCC(=O)O)c1nc2ccc(C(=O)Oc3ccc(C(=N)N)cc3F)cc2s1` [Example 77, 3-((6-((4-Carbamimidoyl-2-fluorophenoxy)carbonyl)benzo[d]thiazol-2-yl)(methyl) Amino)propanoic Acid], the pKi was 9.24.

With `N=C(N)c1ccc(OC(=O)c2cnc(N3CCC(C(=O)NCC(=O)O)CC3)s2)cc1` [Example 33], the negative logarithm of the Ki (pKi) is 8.09.

As to `COC(=O)C1CCN(c2ncc(C(=O)Oc3ccc(C(=N)N)cc3)s2)CC1` [Example 3, 4-Carbamimidoylphenyl 2-(4-(methoxycarbonyl)piperidin-1-yl)thiazole-5-carboxylate], the pKi was 7.77.

Regarding `CCN(CCC(=O)N[C@@H](CC(=O)OC(C)(C)C)C(=O)OC(C)(C)C)c1ncc(C(=O)Oc2ccc(C(=N)N)cc2F)s1` [Example 46, Di-tert-butyl(3-((5-((4-carbamimidoyl-2-fluorophenoxy)carbonyl)thiazol-2-yl)(ethyl)amino)propanoyl)-L-aspartate], the negative logarithm of the Ki (pKi) is 7.40.

As for `COC(=O)CCN(C)c1nc2ccc(C(=O)Oc3ccc(C(=N)N)cc3F)cc2s1` [Example 72, 4-Carbamimidoyl-2-fluorophenyl 2-((3-methoxy-3-oxopropyl)(methyl)amino)benzo[d]thiazole-6-carboxylate], the pKi was 8.89.

Turning to `CCN(CCC(=O)N[C@H](CCC(=O)O)C(=O)O)c1ncc(C(=O)Oc2ccc(C(=N)N)cc2F)s1` [Example 49, (3-((5-((4-Carbamimidoyl-2-fluorophenoxy)carbonyl)thiazol-2-yl)(ethyl)amino)propanoyl)-D-glutamic Acid], the pKi is 9.24.

Take `CN(CCCC(=O)O)c1ncc(C(=O)Oc2ccc(C(=N)N)cc2)s1` [Example 15]: the negative-log Ki (pKi) is 8.24.

Consider `CCN(CCC(=O)N[C@H](CCC(=O)OC(C)(C)C)C(=O)OC(C)(C)C)c1ncc(C(=O)Oc2ccc(C(=N)N)cc2F)s1` [Example 48], for which the negative logarithm of the Ki (pKi) is 7.43.

As to `COC(=O)CCN(C)c1nc2ccc(C(=O)Oc3ccc(C(=N)N)cc3)cc2s1` [Example 60, 4-Carbamimidoylphenyl 2-((3-methoxy-3-oxopropyl)(methyl)amino)benzo[d]thiazole-6-carboxylate], the pKi is 8.00.

Take `CCN(CCC(=O)OC)c1nc2ccc(C(=O)Oc3ccc(C(=N)N)cc3)cc2s1` [Example 61, 4-Carbamimidoylphenyl 2-(ethyl(3-methoxy-3-oxopropyl)amino)benzo[d]thiazole-6-carboxylate]: the negative logarithm of the Ki (pKi) was 8.00.

As to `COC(=O)C(C)(C)CNc1nc2ccc(C(=O)Oc3ccc(C(=N)N)cc3)cc2s1` [Example 67, 4-Carbamimidoylphenyl 2-((3-methoxy-2,2-dimethyl-3-oxopropyl)amino)benzo[d]thiazole-6-carboxylate], the pKi was 7.72.

With `CCN(CCC(=O)Nc1cccc(C(=O)OC(C)(C)C)c1)c1ncc(C(=O)Oc2ccc(C(=N)N)cc2F)s1` [Example 53], the pKi is 7.92.

On to `CCn1/c(=N/CC(C)(C)C(=O)OC)sc2cc(C(=O)Oc3ccc(C(=N)N)cc3F)ccc21` [Example 87, 4-Carbamimidoyl-2-fluorophenyl (Z)-3-ethyl-2-((3-methoxy-2,2-dimethyl-3-oxopropyl)imino)-2,3-dihydrobenzo[d]thiazole-6-carboxylate], for which the pKi is 8.40.

Turning to `CCN(CC(C)(C)C(=O)O)c1nc2ccc(C(=O)Oc3ccc(C(=N)N)cc3)cc2s1` [Example 74, 3-((6-((4-Carbamimidoylphenoxy)carbonyl)benzo[d]thiazol-2-yl)(ethyl) Amino)-2,2-dimethylpropanoic Acid], the pKi is 8.05.

As for `CN(CCCC(=O)O)c1ncc(C(=O)Oc2ccc(C(=N)N)cc2F)s1` [Example 22, 4-((5-((4-Carbamimidoyl-2-fluorophenoxy)carbonyl)thiazol-2-yl)(methyl)amino)butanoic Acid], the negative logarithm of the Ki (pKi) was 9.24.

Turning to `CC(C)(CNc1nc2ccc(C(=O)Oc3ccc(C(=N)N)cc3F)cc2s1)C(=O)O` [Example 56, 3-((6-((4-Carbamimidoyl-2-fluorophenoxy)carbonyl)benzo[d]thiazol-2-yl)amino)-2,2-dimethylpropanoic Acid], the pKi is 9.23.

Take `N=C(N)c1ccc(OC(=O)c2cnc(NCCC(=O)O)s2)cc1` [Example 13]: the pKi was 8.32.

For the compound `COC(=O)C(C)(C)CN(C)c1nc2ccc(C(=O)Oc3ccc(C(=N)N)cc3)cc2s1` [Example 68, 4-Carbamimidoylphenyl 2-((3-methoxy-2,2-dimethyl-3-oxopropyl)(methyl)amino)benzo[d]thiazole-6-carboxylate], the pKi is 8.22.
